Source: US20230125429A1 (priority 2017, published 2023)

Experiments:
ERK phosphorylation = ERK phosphorylation in HepG2 cells (Western blot); type: cell-based, human; conditions: serum-starved HepG2; trypsin 50 nM, Triptolide 1 µM, Triptonide 1 µM; 0-40 minutes
[1] = system: mimosine treated HepG2 cells; experiment: Cell cycle analysis by flow cytometry (PI staining); type: cell-based, human; conditions: 2 µM, by 24 hours
[2] = system: mimosine-treated HepG2 cells; experiment: One-hour treatment of mimosine-treated HepG2 cells, live cell imaging; type: cell-based, human; conditions: one-hour treatment
[3] = system: Par2 knockout keratinocytes; experiment: Growth of Par2 knockout primary keratinocytes, continuous exposure; type: cell-based, mouse; conditions: as low as 1.25 nM (lowest examined)
Method: For the neonatal mouse keratinocyte culture, the dorsal skins of neonatal wild type or Par2 knockout mice were harvested from wild type or Par2 knockout mice, respectively. The skins were incubated overnight at 4° C. in a 0.25% solution of trypsin (Life Technologies, USA) in phosphate-buffered saline (PBS) without calcium and magnesium. The epidermis was then separated from the adjoining dermis, and the dispersed epidermal cells were collected in suspension Eagle’s minimal essential medium (SMEM) (Life Technologies, USA) supplemented with glutamine and 8% calcium free fetal calf serum (FCS) (Life Technologies, USA). The cells were plated onto individual wells of 48 well plates (Corning, USA), which were pre-coated with collagen (Life Technologies, USA), at a density of 70,000 cells/well. The cell cultures were kept for 12 hours at 34° C. in a humidified incubator containing 8% CO2. […]
For primary hepatocytes, the seeded cells were monitored for up to 48 hours either without any treatment (as a control) or with various types of treatments. For primary keratinocytes, cells in 48-well plates were monitored either without any treatment or with various types of treatment for up to 96 hours. For HepG2, cells 96-well plates were monitored either without any treatment or with various types of treatments for up to 48 hours. […]

wild-type keratinocytes [4] = experiment: Growth of wild-type primary keratinocytes, continuous exposure; type: cell-based, mouse; conditions: as low as 1.25 nM (lowest examined), continuous exposure
Method: For the neonatal mouse keratinocyte culture, the dorsal skins of neonatal wild type or Par2 knockout mice were harvested from wild type or Par2 knockout mice, respectively. The skins were incubated overnight at 4° C. in a 0.25% solution of trypsin (Life Technologies, USA) in phosphate-buffered saline (PBS) without calcium and magnesium. The epidermis was then separated from the adjoining dermis, and the dispersed epidermal cells were collected in suspension Eagle’s minimal essential medium (SMEM) (Life Technologies, USA) supplemented with glutamine and 8% calcium free fetal calf serum (FCS) (Life Technologies, USA). The cells were plated onto individual wells of 48 well plates (Corning, USA), which were pre-coated with collagen (Life Technologies, USA), at a density of 70,000 cells/well. The cell cultures were kept for 12 hours at 34° C. in a humidified incubator containing 8% CO2. Low calcium (0.05 mM) S-MEM, containing 8% FCS was then added to initiate the culture. The culture medium was changed every 2 days.
For primary hepatocytes, the seeded cells were monitored for up to 48 hours either without any treatment (as a control) or with various types of treatments. For primary keratinocytes, cells in 48-well plates were monitored either without any treatment or with various types of treatment for up to 96 hours. For HepG2, cells 96-well plates were monitored either without any treatment or with various types of treatments for up to 48 hours. The IncuCyte Zoom was set to take a set of images at fixed locations (4 per well for 96-well plates and 16 per well for 48-well plates and 12-well plates) every three hours.
To address this question, we took a genetic approach.

wild-type keratinocytes [5] = experiment: Growth of wild-type primary keratinocytes, short-term treatment; type: cell-based, mouse; conditions: as high as 800 nM, one hour
[6] = system: Par2 knockout keratinocytes; experiment: Growth of Par2 knockout primary keratinocytes, one hour treatment; type: cell-based, mouse; conditions: as high as 800 nM, one hour
[7] = system: HepG2-GFP orthotopic xenograft tumor; conditions: Triptonide 25 mg/kg by gavage every other day; Sorafenib intraperitoneal; n=10 per cohort
cAMP = experiment: Measurement of cAMP levels in HepG2 cells; type: cell-based, human; conditions: treatment 2 hours after mimosine; Trypsin 50 nM, Triptonide 1 µM; serum-free
PKA = experiment: Measurement of PKA activity in HepG2 cells; type: cell-based, human; conditions: one-hour treatment in regular medium (Trypsin 50 nM, Triptonide 1 µM); hour 9 and 10 after mimosine
HepG2 cells = experiment: Blocking the AC-cAMP-PKA pathway, growth of HepG2 cells; type: cell-based, human; conditions: Triptonide 1 µM, Vidarabine 10 µM, PKI 2.5 µM, alone or combined

CC(C)[C@]12O[C@H]1[C@@H]1O[C@]13[C@]1(O[C@H]1C[C@H]1C4=C(CC[C@@]13C)C(=O)OC4)[C@@H]2O [Triptolide, reference compound]
levels of phosphorylated ERK (ERK phosphorylation): no significant effects | sub-G1 (<2N, apoptotic) population [1]: significant peaks of the sub-G1 | growth and mitotic catastrophe ([2]; 1 µM, regardless of time): growth inhibitory, but did not cause mitotic catastrophe | growth and chromatin condensation ([2]; 2 µM, at 0 and 2 hours after mimosine treatment): not only growth inhibitory, but also caused chromatin condensation | lethality for Par2 knockout keratinocytes [3]: complete lethality | lethality for wild-type keratinocytes (wild-type keratinocytes [4]): complete lethality | growth inhibitory effect on wild-type keratinocytes (wild-type keratinocytes [5]): did not have any significant growth inhibitory effect | growth inhibitory effect on Par2 knockout keratinocytes [6]: did not have any significant growth inhibitory effect

CNC(=O)c1cc(Oc2ccc(NC(=O)Nc3ccc(Cl)c(C(F)(F)F)c3)cc2)ccn1 [Sorafenib, reference compound]
tumor specific (GFP) signals [7]: lower intensities of the tumor specific signals at all time points

Trypsin
levels of phosphorylated ERK (ERK phosphorylation): two-stage increase | levels of cAMP (cAMP): modest and transient elevations | level of PKA activity around G2/M transition (PKA): reduced significantly

Nc1ncnc2c1ncn2[C@@H]1O[C@H](CO)[C@@H](O)[C@@H]1O [Vidarabine, reference compound]
effect on growth of HepG2 cells (HepG2 cells): no significant effects
